Data: article PMC10488193, “Evaluation of the Chemical Stability, Membrane Permeability and Antiproliferative Activity of Cyclic Diarylheptanoids from European Hornbeam (Carpinus betulus L.)” (International Journal of Molecular Sciences, 2023)
Entries after “also recorded” stand apart in the source; their conditions may differ. Read-outs that look alike come from different tables or passages of the source. Marks after values point to notes of the source that are not given here.

How the values were obtained:
[1] = Aqueous stability at biorelevant pH values, 37 °C (UHPLC-DAD); type: physicochemical; conditions: for half-life at 100 µM / degradation rate constant k: first-order; for half-life at 100 µM: read-out: half-life t1/2 (converted)
Protocol: (§1) For the analysis of the samples from the chemical stability as well as the PAMPA studies, sample concentrations were determined using our previously developed ultrahigh-performance liquid chromatography–diode array detection (UHPLC-DAD) method validated for linearity, precision and accuracy. Briefly, an ACQUITY UPLC H-Class PLUS System hyphenated with a quaternary solvent delivery pump (QSM), an auto-sampler manager (FTN), a column compartment (CM) and a photodiode array (PDA) detector (Waters Corporation) was employed. Stationary phase: Acquity BEH C18 column (100 × 2.1 mm i.d., 1.7 µm; Waters Corporation), column temperature: 30 °C. The mobile phase consisted of 0.3% acetic acid in water (eluent A) and acetonitrile (eluent B). The following gradient elution was applied at a flow rate of 0.3 mL/min: 0 min 12.0% B, 19.0 min 13.5% B, 25.5 min 75.0% B, 26.0 min 100.0% B, 28.0 min 100.0% B, 28.5 min 12.0% B.
The buffers modelling the gastric fluid (pH 1.2), the intestinal fluid (pH 6.8) and the blood and the tissues (pH 7.4) were prepared as follows. Buffer pH = 1.2: 1.0 g NaCl and 3.5 mL HCl dissolved in distilled water, final volume: 500.0 mL. Buffer pH = 6.8: 20.2 g Na2HPO4∙7H2O and 3.4 g NaH2PO4∙H2O dissolved in distilled water, final volume: 1000.0 mL, pH adjustment with 0.5 M NaOH or 0.5 M HCl. Buffer pH = 7.4: one PBS tablet dissolved in 200.0 mL distilled water. The stock solutions of compounds 1–4 were prepared with dimethyl sulfoxide (DMSO) at a concentration of 10.0 mM. The stock solutions were diluted 100-fold with each buffer separately to obtain the working solutions (297.0 μL buffer + 3.0 μL stock solution). All working solutions were filtered through Phenex-RC 15 mm, 0.2 μm syringe filters (Gen-Lab Ltd., Budapest, Hungary). The samples were incubated for 81 h at 37 °C; aliquots were taken for analysis every 9 h in accordance with the time required to quantify the analytes of interest in one set of samples. The total incubation time of 81 h was applied to obtain data for ten measurement points. The previously described UHPLC-DAD method was used to examine the changes in compound concentrations (see Section 3.4).
For the determination of pH stability, the initial AUC values were compared with the data after 9 and 81 h using paired-sample t test; significant difference was reported at p < 0.05. The effects of the pH were analysed through one-way analysis of variance (ANOVA) followed by Tukey’s post hoc HSD test (p < 0.05). All experiments were performed in triplicates (n = 3).
(§2) We used the following equations to calculate the first-order reaction rate constant (k) and the half-life (t1/2) indicating the time required to reduce the concentration of diarylheptanoids by 50% [29]:ln (ct/c0) = −k × t(1) t1/2 = −ln 0.5 × k^−1(2) where ct is the concentration of the diarylheptanoids at time t, c0 is the initial concentration, k is the reaction rate constant, t is the treatment time.

[2] = Storage stability in solutions and hornbeam bark extracts (UHPLC-DAD); type: physicochemical
Protocol: as §1, §2
The chemical stability of the isolated compounds in solutions was examined at a concentration of 50 µg/mL in methanol and water (in the latter case using methanol as co-solvent, final composition: water-methanol 90:10, v/v). Furthermore, the methanol and ethyl acetate extracts of C. betulus bark (concentration 4 mg/mL) were also studied in order to assess the effects of the accompanying substances. The storage stability studies were performed at a neutral pH value. All solutions were filtered through Phenex-RC 15 mm, 0.2 μm syringe filters (Gen-Lab Ltd., Budapest, Hungary). The samples were prepared in triplicate and stored protected from light at 22 ± 2.0 °C, 5 ± 1.5 °C and −15 ± 2.0 °C for 23 weeks. Quantities of the analytes of interest were quantified at weeks 12 and 23 using the abovementioned UHPLC-DAD method (see Section 3.4).
The effects of the temperature and the medium (i.e., solvent and accompanying substances) were analysed through one-way analysis of variance (ANOVA) followed by Tukey’s post hoc HSD test (p < 0.05). To establish the kinetic parameters t1/2 and k, Equations (1) and (2) were applied, respectively.

Compound: O=C1CCC(=O)C(O)Cc2ccc(O)c(c2)-c2cc(ccc2O)C1 (stereo not drawn) [Compound 4, 3,12,17-trihydroxytricyclo [12.3.1.1^2,6]nonadeca-1(18),2(19),3,5,14,16-hexaene-8,11-dione]
- aqueous stability at pH 1.2, 6.8, 7.4 (in words) ([1]; 37 °C, up to 81 h): stable only at pH 7.4
- relative concentration compared to the initial value ([1]; 9 h, pH 1.2, 37 °C): 68.5 ± 4.5%
- relative concentration compared to the initial value ([1]; 9 h, pH 6.8, 37 °C): 105.8 ± 2.6 ^a %
- relative concentration compared to the initial value ([1]; 9 h, pH 7.4, 37 °C): 102.0 ± 3.7 ^a %
- relative concentration compared to the initial value ([1]; 81 h, pH 1.2, 37 °C): 31.0 ± 7.0%
- relative concentration compared to the initial value ([1]; 81 h, pH 6.8, 37 °C): 88.9 ± 2.0%
- relative concentration compared to the initial value ([1]; 81 h, pH 7.4, 37 °C): 103.1 ± 2.2 ^a %
- half-life at 100 µM ([1]; NaCl/HCl buffer, pH 1.2, 37 °C): 2.27 days
- degradation rate constant k ([1]; pH 1.2, 37 °C): 0.0127 h⁻¹
- degradation rate constant k ([1]; pH 6.8, 37 °C): 0.00142 h⁻¹
- half-life at 100 µM ([1]; sodium phosphate buffer, pH 6.8, 37 °C): 20.3 days
- concentration as compared to the initial value ([2]; 12 weeks, 5 °C, EE (ethyl acetate extract of bark)): 102.0 ± 1.7%
- concentration as compared to the initial value ([2]; 12 weeks, 5 °C, EM (methanol extract of bark)): 105.5 ± 2.5%
- concentration as compared to the initial value ([2]; 12 weeks, 5 °C, SA (aqueous solution)): 100.5 ± 0.7 ^ab %
- concentration as compared to the initial value ([2]; 12 weeks, 5 °C, SM (methanol solution)): 100.1 ± 0.6 ^ab %
- concentration as compared to the initial value ([2]; 12 weeks, 22 °C, EE (ethyl acetate extract of bark)): 106.3 ± 2.6 %
- concentration as compared to the initial value ([2]; 12 weeks, 22 °C, EM (methanol extract of bark)): 120.9 ± 2.6 %
- concentration as compared to the initial value ([2]; 12 weeks, 22 °C, SA (aqueous solution)): 100.8 ± 1.1 ^a %
- concentration as compared to the initial value ([2]; 12 weeks, 22 °C, SM (methanol solution)): 100.1 ± 0.5 ^ab %
- concentration as compared to the initial value ([2]; 12 weeks, −15 °C, EE (ethyl acetate extract of bark)): 103.5 ± 0.8%
- concentration as compared to the initial value ([2]; 12 weeks, −15 °C, EM (methanol extract of bark)): 102.8 ± 3.3 %
- concentration as compared to the initial value ([2]; 12 weeks, −15 °C, SA (aqueous solution)): 98.6 ± 1.3 ^b %
- concentration as compared to the initial value ([2]; 12 weeks, −15 °C, SM (methanol solution)): 99.1 ± 0.7 ^ab %
- concentration as compared to the initial value ([2]; 23 weeks, 5 °C, EE (ethyl acetate extract of bark)): 107.8 ± 2.6 %
- concentration as compared to the initial value ([2]; 23 weeks, 5 °C, EM (methanol extract of bark)): 107.0 ± 4.1%
- concentration as compared to the initial value ([2]; 23 weeks, 5 °C, SA (aqueous solution)): 100.0 ± 0.5 ^ab %
- concentration as compared to the initial value ([2]; 23 weeks, 5 °C, SM (methanol solution)): 100.3 ± 0.5 ^ab %
- concentration as compared to the initial value ([2]; 23 weeks, 22 °C, EE (ethyl acetate extract of bark)): 108.5 ± 2.7 %
- concentration as compared to the initial value ([2]; 23 weeks, 22 °C, EM (methanol extract of bark)): 135.7 ± 9.7 %
- concentration as compared to the initial value ([2]; 23 weeks, 22 °C, SA (aqueous solution)): 100.3 ± 0.6 ^ab %
- concentration as compared to the initial value ([2]; 23 weeks, 22 °C, SM (methanol solution)): 100.2 ± 0.5 ^ab %
- concentration as compared to the initial value ([2]; 23 weeks, −15 °C, EE (ethyl acetate extract of bark)): 108.0 ± 2.2 %
- concentration as compared to the initial value ([2]; 23 weeks, −15 °C, EM (methanol extract of bark)): 103.6 ± 3.5%
- concentration as compared to the initial value ([2]; 23 weeks, −15 °C, SA (aqueous solution)): 99.9 ± 1.2 ^ab %
- concentration as compared to the initial value ([2]; 23 weeks, −15 °C, SM (methanol solution)): 99.8 ± 1.2 ^ab %
- storage stability in methanol and aqueous solutions (in words) ([2]; SM and SA, −15, 5, 22 °C, weeks 12 and 23): stable; also recorded: good stability
